Laboratory results published in the supplement of paper PMC10331698.
± gives the standard deviation of the averaged measurements.

Experiments:
Experiment in all cases: level (log10 ratio to DMSO vehicle control); higher = higher biomarker level / cell amount than vehicle control
Details in all cases: in DMSO
[1] = compound: O=C(O)C(F)(F)C(F)(F)C(F)(F)OC(F)(C(F)(F)F)C(F)(F)F [Perfluoro-4-isopropoxybutanoic acid]
Procedure: (§1)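 BioMAP Diversity Plus panel of 12 human primary cell co-culture systems (3C, 4H, LPS, SAg, BT, BF4T, BE3C, CASM3C, HDF3CGF, KF3CT, MyoF, Mphg). Compounds were added 1 h before stimulation and left for 24 h (MyoF 48 h; BT 72 h for soluble read-outs or 6 d for IgG). Biomarkers were read by ELISA, cytotoxicity by SRB, PBMC viability and proliferation by Alamar Blue. Each well value was divided by the mean of 8 DMSO control wells on the same plate and log10 transformed; duplicate blinded samples were tested at 4 concentrations.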

[2] = compound: NC(=O)C(F)(F)C(F)(F)C(F)(F)F [Heptafluorobutyramide]
Procedure: as §1

[3] = compound: C=C(C)C(=O)OCCC(F)(F)C(F)(F)C(F)(F)C(F)(F)C(F)(C(F)(F)F)C(F)(F)F [(Perfluoro-5-methylhexyl)ethyl 2-methylprop-2-enoate]
Procedure: as §1

[4] = compound: O=S(=O)(O)C(F)(F)C(F)(F)C(F)(F)C(F)(F)C(F)(F)C(F)(F)F [Perfluorohexanesulfonic acid]
Procedure: as §1

[5] = compound: FC(F)(F)C(F)(F)C(F)(F)C(F)(F)C(F)(F)CCI [1-Iodo-1H,1H,2H,2H-perfluoroheptane]
Procedure: as §1

[6] = compound: O=C(O)C(F)(F)C(F)(F)C(F)(F)C(F)(F)F [Perfluoropentanoic acid]
Procedure: as §1

[7] = compound: COC(=O)CCC(F)(F)C(F)(F)C(F)(F)C(F)(F)F [Methyl 2H,2H,3H,3H-perfluoroheptanoate]
Procedure: as §1

Test System | level (log10) ([1]; 6700 nM) | level (log10) ([1]; 20000 nM) | level (log10) ([1]; 60000 nM) | level (log10) ([2]; 6700 nM) | level (log10) ([2]; 20000 nM) | level (log10) ([2]; 60000 nM) | level (log10) ([3]; 6700 nM) | level (log10) ([3]; 20000 nM) | level (log10) ([4]; 6700 nM) | level (log10) ([4]; 20000 nM) | level (log10) ([4]; 60000 nM) | level (log10) ([5]; 6700 nM) | level (log10) ([5]; 20000 nM) | level (log10) ([5]; 60000 nM) | level (log10) ([6]; 6700 nM) | level (log10) ([6]; 20000 nM) | level (log10) ([6]; 60000 nM) | level (log10) ([7]; 6700 nM) | level (log10) ([7]; 20000 nM) | level (log10) ([7]; 60000 nM)
HDF3CGF:M-CSF | -0.016 ± 0.0071 | -0.0135 ± 0.0078 | -0.0055 ± 0.005 | -0.0145 ± 0.00071 | -0.009 | 0.0165 ± 0.035 | -0.0175 ± 0.0078 | -0.0175 ± 0.0035 | 0.001 ± 0.0085 | -0.012 ± 0.0028 | 0.0015 ± 0.00071 | -0.0275 ± 0.053 | -0.0415 ± 0.011 | -0.198 ± 0.11 | 0.0025 ± 0.019 | -0.018 ± 0.0099 | 0.004 ± 0.0028 | -0.0125 ± 0.0064 | -0.008 ± 0.013 | 0.002 ± 0.011
CASM3C:CXCL8/IL-8 | 0.0115 ± 0.019 | 0.0295 ± 0.016 | 0.076 ± 0.017 | -0.005 ± 0.0057 | -0.007 ± 0.0099 | 0.0075 ± 0.015 | 0.005 ± 0.037 | 0.019 ± 0.028 | -0.006 ± 0.013 | -0.003 | 0.026 ± 0.014 | 0.002 ± 0.0028 | -0.0025 ± 0.0035 | 0.003 ± 0.018 | -0.01 ± 0.0085 | -0.019 ± 0.011 | -0.0015 ± 0.013 | -0.0135 ± 0.011 | -0.0115 ± 0.005 | -0.0085 ± 0.013
HDF3CGF:EGFR | -0.001 ± 0.034 | -0.0035 ± 0.022 | -0.012 ± 0.024 | 0.0095 ± 0.059 | 0.0005 ± 0.046 | -0.0155 ± 0.032 | -0.0695 ± 0.0078 | -0.0415 ± 0.0064 | 0.0045 ± 0.025 | -0.0125 ± 0.039 | -0.021 ± 0.04 | 0.046 ± 0.02 | 0.059 ± 0.021 | 0.038 ± 0.031 | 0.008 ± 0.02 | -0.0265 ± 0.013 | -0.008 ± 0.027 | -0.0045 ± 0.0078 | 0.0105 ± 0.029 | -0.0055 ± 0.053
CASM3C:CXCL9/MIG | 0.01 ± 0.0014 | 0.0125 ± 0.0021 | 0.044 ± 0.048 | -0.0035 ± 0.00071 | -0.01 ± 0.0014 | 0.0005 ± 0.011 | 0.0335 ± 0.029 | 0.0445 ± 0.046 | 0.003 ± 0.0099 | 0.0045 ± 0.0064 | 0.012 ± 0.0014 | -0.007 ± 0.0042 | -0.0025 ± 0.0021 | 0.008 ± 0.011 | 0.001 ± 0.062 | -0.0015 ± 0.036 | 0.043 ± 0.017 | -0.006 ± 0.0085 | 0.0035 ± 0.0035 | 0.015 ± 0.0028
MyoF:PAI-I | -0.0035 ± 0.015 | -0.007 ± 0.0042 | 0.006 ± 0.018 | 0.0035 ± 0.00071 | 0.01 ± 0.0014 | -0.0055 ± 0.016 | -0.0025 ± 0.011 | -0.019 ± 0.0085 | -0.0055 ± 0.013 | -0.0135 ± 0.015 | -0.0055 ± 0.012 | -0.0005 ± 0.00071 | 0.0005 ± 0.00071 | -0.002 ± 0.0042 | -0.0035 ± 0.00071 | 0.005 ± 0.0071 | 0.0075 ± 0.0021 | -0.003 | 0.0055 ± 0.0078 | 0.003 ± 0.014
lMphg:IL-1alpha | -0.005 ± 0.0057 | 0.0045 ± 0.005 | 0.009 ± 0.028 | -0.034 ± 0.021 | -0.0015 ± 0.018 | 0.0475 ± 0.053 | 0.016 ± 0.018 | 0.0385 ± 0.026 | 0.023 ± 0.095 | 0.012 ± 0.047 | 0.0305 ± 0.063 | 0.031 ± 0.021 | -0.01 ± 0.018 | 0.0305 ± 0.016 | -0.0095 ± 0.022 | -0.0195 ± 0.046 | 0.01 ± 0.05 | -0.0215 ± 0.056 | -0.0265 ± 0.035 | 0.029 ± 0.082
lMphg:CD40 | -0.012 ± 0.013 | -0.041 ± 0.034 | -0.027 ± 0.035 | -0.021 ± 0.011 | -0.0185 ± 0.037 | -0.0025 ± 0.025 | 0.0035 ± 0.011 | -0.0085 ± 0.0078 | -0.0205 ± 0.037 | 0.019 ± 0.011 | 0.0045 ± 0.011 | -0.004 ± 0.0042 | -0.008 ± 0.013 | -0.058 ± 0.02 | 0.0225 ± 0.0092 | -0.0085 ± 0.0064 | 0.0175 ± 0.0078 | -0.0295 ± 0.0035 | -0.0285 ± 0.005 | -0.039 ± 0.034
KF3CT:uPA | -0.002 ± 0.0028 | 0.0105 ± 0.0035 | 0.016 ± 0.0014 | -0.0085 ± 0.022 | -0.0215 ± 0.026 | -0.006 ± 0.014 | 0.007 ± 0.0057 | 0.007 ± 0.0028 | -0.0135 ± 0.015 | -0.0105 ± 0.015 | -0.002 ± 0.0014 | -0.001 ± 0.034 | 0.0145 ± 0.022 | 0.0125 ± 0.00071 | 0.0015 ± 0.023 | 0 ± 0.0085 | 0.021 ± 0.0071 | -0.007 ± 0.033 | 0.0005 ± 0.0092 | -0.008 ± 0.025
HDF3CGF:Collagen I | -0.0285 ± 0.067 | -0.043 ± 0.078 | 0.032 ± 0.12 | 0.0065 ± 0.011 | -0.0025 ± 0.015 | 0.0155 ± 0.069 | 0.0115 ± 0.067 | 0.034 ± 0.092 | 0.0085 ± 0.015 | 0.0185 ± 0.015 | 0.0555 ± 0.067 | 0.003 ± 0.017 | 0.0055 ± 0.005 | -0.093 ± 0.061 | -0.0295 ± 0.012 | -0.01 ± 0.0014 | 0.003 ± 0.064 | 0.0615 ± 0.071 | 0.0465 ± 0.016 | 0.051 ± 0.041
KF3CT:CXCL9/MIG | 0.0025 ± 0.011 | 0.0105 ± 0.00071 | 0.0155 ± 0.023 | 0.0065 ± 0.0021 | 0.0005 ± 0.0078 | 0.0155 ± 0.0064 | 0.018 ± 0.014 | 0.0215 ± 0.023 | 0.001 ± 0.021 | 0.002 ± 0.0071 | 0.013 ± 0.013 | 0.003 ± 0.0014 | 0.003 | 0.006 ± 0.0014 | -0.002 ± 0.0057 | -0.0055 ± 0.0021 | 0.0085 ± 0.013 | -0.003 ± 0.0057 | 0.004 ± 0.0042 | -0.02 ± 0.0028
KF3CT:TIMP-2 | -0.0105 ± 0.011 | -0.005 ± 0.013 | 0.004 ± 0.021 | -0.001 ± 0.011 | 0.0075 ± 0.0035 | 0.008 ± 0.0042 | -0.016 ± 0.03 | -0.041 ± 0.052 | 0.0005 ± 0.0064 | 0.012 ± 0.0042 | 0.019 ± 0.013 | -0.012 ± 0.035 | -0.03 ± 0.028 | -0.0245 ± 0.03 | -0.013 ± 0.037 | -0.0065 ± 0.0035 | 0.017 ± 0.045 | -0.004 ± 0.017 | -0.012 ± 0.011 | -0.0125 ± 0.043
CASM3C:PAI-I | 0.007 ± 0.016 | 0.01 ± 0.021 | 0.0075 ± 0.026 | -0.0045 ± 0.0021 | -0.0045 ± 0.012 | 0.0105 ± 0.0035 | -0.004 ± 0.0014 | 0.002 ± 0.0014 | 0.001 ± 0.013 | 0.002 ± 0.0028 | 0.006 | 0.003 ± 0.0042 | 0.001 ± 0.0014 | 0.007 ± 0.0042 | -0.0095 ± 0.011 | -0.007 ± 0.0042 | 0.0005 ± 0.011 | -0.0195 ± 0.0078 | -0.006 ± 0.0099 | -0.0095 ± 0.016
HDF3CGF:CD106/VCAM-1 | -0.027 ± 0.062 | -0.0545 ± 0.067 | -0.0545 ± 0.00071 | 0.0035 ± 0.0092 | -0.012 ± 0.018 | -0.0345 ± 0.054 | 0.02 ± 0.023 | -0.0275 ± 0.011 | 0.0105 ± 0.011 | 0.0165 ± 0.00071 | -0.0155 ± 0.0035 | -0.0335 ± 0.019 | -0.102 ± 0.033 | -0.429 ± 0.011 | -0.0095 ± 0.005 | 0.0035 ± 0.036 | 0.0035 ± 0.022 | -0.0395 ± 0.033 | -0.0135 ± 0.053 | -0.0235 ± 0.066
CASM3C:Proliferation | -0.018 ± 0.0099 | -0.037 ± 0.025 | -0.0085 ± 0.057 | -0.0675 ± 0.098 | 0.0315 ± 0.018 | -0.0275 ± 0.087 | -0.036 ± 0.0014 | -0.054 ± 0.071 | 0.014 ± 0.014 | 0.002 ± 0.014 | 0.0185 ± 0.011 | -0.034 ± 0.0071 | -0.101 ± 0.062 | -0.106 ± 0.054 | 0.0185 ± 0.021 | -0.0305 ± 0.067 | 0.0215 ± 0.052 | -0.001 ± 0.0028 | -0.038 ± 0.0042 | 0.0025 ± 0.0035
